Laboratory results published in patent publication US7820703B2, “Lysophosphatidic acid receptor selective antagonists” (University of Virginia Patent Foundation, priority 2004, dated 2010).
Entries after “also recorded” stand apart in the source; their conditions may differ.

Experiments:
human LPA2 [1] = target: T1, human LPA2 (Homo sapiens, UniProt Q9HBW0); test: GTP[γ35S] binding assay, agonist activity at LPA2; format: biochemical; design: expressed in transfected cells; host or cells: HEK293T cells (membranes)
Experimental: (§1) The appropriate receptor plasmid DNA (encoding mouse LPA1, human LPA2 or human LPA3) was mixed with equal amounts of expression plasmids (pcDNA3) encoding a mutated (C351F) rat Gi2a, cow β1, and γ2 proteins and these DNAs were used to transfect monolayers of HEK293T cells (where ‘T’ indicates expression of the SV-40 virus large T antigen) using the calcium phosphate precipitate method. After about 60 hours, cells were harvested, membranes were prepared, aliquoted and stored at −70° C. until use.
(§2) The GTP[35 γS] assay was performed as described by us previously. Membranes containing 5 ug of protein were incubated in 0.1 ml GTP-binding buffer (in mM: HEPES 50, NaCl 100, MgCl2 10, pH7.5) containing […], […], 0.1 nM GTP[35 γS] (1200 Ci/mmol), and indicated lipid(s) for 30 minutes at 30° C. Samples were analyzed for membrane-bound radionuclide using a Brandel Cell Harvester (Gaithersburg, Md.).
(§3) Membranes prepared from these cells are used to measure GTPγ[^35S] binding as a function of test compound concentration. The resulting dose-response curves provide relative potency (EC50) and efficacy (Emax) for the test compounds.

LPP1 (PAP2a) = target: T2, LPP1 (PAP2a) (Homo sapiens, UniProt O14494); test: LPP inhibition, competition with [32P]LPA, LPP1; format: biochemical; details: competition with 50 nM [32P]LPA
T2 sequence (O14494 1-284): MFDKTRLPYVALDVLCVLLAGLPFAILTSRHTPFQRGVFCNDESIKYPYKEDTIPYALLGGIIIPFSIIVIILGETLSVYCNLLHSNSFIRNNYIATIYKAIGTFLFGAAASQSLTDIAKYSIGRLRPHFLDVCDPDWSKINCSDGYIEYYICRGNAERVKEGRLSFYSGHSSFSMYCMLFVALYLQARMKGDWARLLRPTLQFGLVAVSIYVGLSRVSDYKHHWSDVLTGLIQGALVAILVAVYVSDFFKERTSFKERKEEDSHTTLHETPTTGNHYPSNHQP
Experimental: (§4) NOHPP was also tested for activity at the three cloned LPPs. Although the phosphonate head group eliminates the possibility of NOHPP acting as a substrate, it is possible that the compound could be a competitive inhibitor.

mouse LPA1 [2] = target: T3, mouse LPA1 (Mus musculus, UniProt P61793); test: GTP[γ35S] binding assay, agonist activity at LPA1; format: biochemical; design: expressed in transfected cells; host or cells: HEK293T cells (membranes)
Experimental: as §1
as §2, with “Md.). The C351F mutation renders the Gi2α protein resistant to inactivation by pertussis toxin or the alkylating agent N-ethylmaleimide; however in practice background binding was sufficiently low to obviate these maneuvers.” for “Md.).”
(§5) This assay isolates each recombinant LPA receptor and allows analysis of all three receptors using the same system.
as §3

human LPA3 [3] = target: T4, human LPA3 (Homo sapiens, UniProt Q9UBY5); test: GTP[γ35S] binding assay, agonist activity at LPA3; format: biochemical; design: expressed in transfected cells; host or cells: HEK293T cells (membranes)
T4 sequence (Q9UBY5 1-353): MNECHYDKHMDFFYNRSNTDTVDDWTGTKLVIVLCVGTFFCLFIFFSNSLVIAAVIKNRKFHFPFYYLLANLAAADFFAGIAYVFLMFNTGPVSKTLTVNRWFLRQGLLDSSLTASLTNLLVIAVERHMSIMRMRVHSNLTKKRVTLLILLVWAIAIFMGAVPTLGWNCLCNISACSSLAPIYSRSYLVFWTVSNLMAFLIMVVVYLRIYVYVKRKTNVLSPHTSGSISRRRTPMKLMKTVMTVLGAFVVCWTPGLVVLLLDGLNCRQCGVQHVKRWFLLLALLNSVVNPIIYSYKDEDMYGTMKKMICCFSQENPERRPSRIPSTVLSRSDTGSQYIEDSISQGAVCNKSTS
Experimental: as §1
as §2, with “Md.). The C351F mutation renders the Gi2α protein resistant to inactivation by pertussis toxin or the alkylating agent N-ethylmaleimide; however in practice background binding was sufficiently low to obviate these maneuvers.” for “Md.).”
as §5, §3

LPP3 (PAP2b) = target: T5, LPP3 (PAP2b) (Homo sapiens, UniProt O14495); test: LPP inhibition, competition with [32P]LPA, LPP3; format: biochemical; details: competition with 50 nM [32P]LPA
T5 sequence (O14495 1-311): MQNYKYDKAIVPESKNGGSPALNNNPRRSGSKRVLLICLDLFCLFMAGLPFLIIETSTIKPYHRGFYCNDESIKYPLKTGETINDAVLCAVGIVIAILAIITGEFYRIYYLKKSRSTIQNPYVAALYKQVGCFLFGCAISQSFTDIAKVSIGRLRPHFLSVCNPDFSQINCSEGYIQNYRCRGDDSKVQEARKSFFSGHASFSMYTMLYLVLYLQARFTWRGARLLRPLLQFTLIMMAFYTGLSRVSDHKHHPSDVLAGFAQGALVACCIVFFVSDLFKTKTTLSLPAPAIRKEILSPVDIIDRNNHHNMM
Experimental: as §4

LPA1 receptor = target: T6, LPA1 receptor (Mus musculus, UniProt P61793); test: antagonism of LPA-evoked GTP[γ35S] binding at LPA1; format: biochemical; details: GTP[γ35S] binding
T6 construct: expressed in transfected cells; host or cells: HEK293T cells (membranes)
Experimental: as §1, §2
The X-intercept of the linear transformation is equal to the inverse log of the KI.
All compounds were characterized by ^1H and ^13C NMR, mass spectroscopy and, in certain cases, elemental analysis. A GTP[γ35S] binding assay was adapted to assess in vitro activity.
All compounds were characterized by ^1H and ^13C NMR, mass spectroscopy and, in most cases, C, H, N analyses. A membrane-based GTP[γ^35S] binding assay was adapted to assess in vitro activity at the LPA1 and LPA3 receptors.

LPA receptors = test: whole cell assays of calcium mobilization or inhibition of cAMP accumulation, agonist activity; format: cell-based
Experimental: (§6) Assays for cAMP accumulation were conducted on populations of 5×10^5 cells stimulated with […] in the presence of the phosphodiesterase inhibitor isomethylbutylxanthine (IBMX) for 15 minutes at 30° C. cAMP was measured by automated radioimmunoassay.
A FLIPR™ (Molecular Devices, Inc.) was used to measure intracellular calcium in A431 and HEK293T cells. A431 cells were seeded (˜50,000 cells/well) in 96-well clear bottom black microplates (Corning Costar Corp., Cambridge, Mass.) and left overnight in CO2 incubator at 37° C. HEK293T cells were treated likewise, but seeded onto poly D-lysine coated microplates (Becton Dickinson, Franklin Lakes, N.J.). A431 cells were dye-loaded with 4 μM Fluo-3 AM ester (Molecular Probes Inc., Eugene, Oreg.) in a loading buffer (1×HBSS buffer, pH 7.4, containing 20 mM HEPES, 0.1% BSA, and 2.5 mM probenecid) for 1 hour at 37° C. Cells were then washed four times with the loading buffer and exposed in the FLIPR™ to sets of compounds. HEK293T cells were loaded with 2 μM Fluo-4 AM ester (Molecular Probes Inc., Eugene, Oreg.) in the same loading buffer without probenecid for 30 minutes and washed four times before being exposed to compounds in the FLIPR™. […]
The same activity was determined with human LPA1 using a recombinant baculovirus-infected insect Sf9 cell membrane preparation.

human LPA2 [4] = target: T1, human LPA2; test: chloride conductance in Xenopus oocytes injected with human LPA2 mRNA; format: cell-based; design: expressed in transfected cells; host or cells: Xenopus laevis oocytes injected with mRNA; details: 10 μM applied to the oocyte surface
Experimental: (§7) wls-b8L and the other phosphonates were also tested also for activity in three whole cell assays. […] Finally, the activity of wls-b8L in activating a chloride conductance in Xenopus laevis ooctyes was measured.

Xenopus laevis ooctyes = test: chloride conductance in Xenopus laevis oocytes, endogenous receptor; format: cell-based
Experimental: as §7

human platelets = test: aggregation of human platelets; format: cell-based; details: concentrations up to 10 micromolar
Description: wls-b8L is expected to be resistant to hydrolysis by phosphohydrolases by virtue of its containing a phosphonate, rather than a phosphate, group. Furthermore this chemical entity (wls-b8L) has two additional desirable properties.

mouse LPA1 [5] = target: T3, mouse LPA1; test: cAMP accumulation in RH7777 cells expressing LPA1; format: cell-based; design: expressed in transfected cells; details: concentration of 1 μM
Experimental: as §6
Rat hepatoma RH7777 cell monolayers were transfected with the mLPA1 plasmid DNA using the calcium phosphate precipitate method and clonal populations expressing the neomycin phosphotransferase gene were selected by addition of geneticin (G418) to the culture media. The RH7777 cells were grown in monolayers at 37° C. in a 5% CO02/95% air atmosphere in growth media consisting of: 90% MEM, 10% fetal bovine serum, 2 mM glutamine and 1 mM sodium pyruvate.
as §7

human LPA3 [6] = target: T4, human LPA3; test: chloride conductance in Xenopus oocytes injected with human LPA3 mRNA; format: cell-based; design: expressed in transfected cells; host or cells: Xenopus laevis oocytes injected with mRNA; details: 10 μM applied to the oocyte surface
Experimental: as §7

T3 sequence (P61793 whole entry): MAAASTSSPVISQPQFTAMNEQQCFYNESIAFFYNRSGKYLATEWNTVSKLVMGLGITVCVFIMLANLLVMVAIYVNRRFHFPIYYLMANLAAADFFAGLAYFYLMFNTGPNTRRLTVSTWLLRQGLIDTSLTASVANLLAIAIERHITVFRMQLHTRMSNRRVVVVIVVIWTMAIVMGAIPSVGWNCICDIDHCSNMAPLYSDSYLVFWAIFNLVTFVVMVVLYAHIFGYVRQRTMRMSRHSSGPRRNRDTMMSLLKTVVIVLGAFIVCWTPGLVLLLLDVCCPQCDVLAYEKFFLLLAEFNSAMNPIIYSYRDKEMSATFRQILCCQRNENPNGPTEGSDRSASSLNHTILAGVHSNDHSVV
T1 sequence (Q9HBW0 whole entry): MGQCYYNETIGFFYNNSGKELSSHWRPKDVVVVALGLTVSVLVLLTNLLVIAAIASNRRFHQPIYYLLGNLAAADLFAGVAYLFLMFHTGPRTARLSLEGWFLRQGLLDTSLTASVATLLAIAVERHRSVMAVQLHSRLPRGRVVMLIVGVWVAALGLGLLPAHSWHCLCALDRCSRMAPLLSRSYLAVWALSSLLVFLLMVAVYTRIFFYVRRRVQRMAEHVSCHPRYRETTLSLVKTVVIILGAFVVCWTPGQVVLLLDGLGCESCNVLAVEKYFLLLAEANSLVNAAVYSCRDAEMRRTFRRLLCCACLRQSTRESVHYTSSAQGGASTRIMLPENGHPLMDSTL
T6 sequence (P61793 whole entry): as the sequence (P61793 whole entry) above

Row | SMILES | agonist activity at LPA2, in words (human LPA2 [1]) | inhibition of LPP1 (LPP1 (PAP2a)) | agonist activity at LPA1, in words (mouse LPA1 [2]) | agonist activity at LPA3, in words (human LPA3 [3]) | inhibition of LPP3 (LPP3 (PAP2b)) | inhibition of LPP3 (LPP3 (PAP2b); listed as VPC12031) | antagonist activity at LPA1, in words (LPA1 receptor) | agonist activity in whole cell assays (LPA receptors) | chloride conductance response, oocytes injected with human LPA2 mRNA (human LPA2 [4]) | activating a chloride conductance, endogenous receptor (Xenopus laevis ooctyes) | aggregation of human platelets (human platelets) | inhibition of cAMP accumulation, efficacy (mouse LPA1 [5]) | chloride conductance response, oocytes injected with human LPA3 mRNA (human LPA3 [6])
1 | CCCCCCCC/C=C\CCCCCCCC(=O)NCCC(O)P(=O)(O)O (racemic) [NOHPP, (9Z)-N-(rac-3-hydroxy-3-phosphonopropyl)octadec-9-enamide] | fully efficacious; also recorded: as efficacious as, but somewhat less potent than, LPA | to a lesser extent | fully efficacious; also recorded: as efficacious as, but somewhat less potent than, LPA | little activity; also recorded: distinctly less potent and far less efficacious than LPA | inhibited | markedly better at the PAP2b (LPP3) than PAP2a (LPP1) |  |  |  |  |  |  | 
2 | CCCCCCCC/C=C\CCCCCCCC(=O)N[C@@H](COP(=O)(O)O)Cc1ccccc1 [VPC12084] |  |  |  |  |  |  | did block LPA activity | appreciable agonist activity |  |  |  |  | 
3 | CCCCCCCC/C=C\CCCCCCCC(=O)NCCCP(=O)(O)O [wls-b8L, (9Z)-N-(3-phosphonopropyl)octadec-9-enamide] |  |  | more potent and efficacious at LPA1 than at either LPA2 or LPA3 |  |  |  |  |  | very modest response | does not evoke this response | does not elicit aggregation | fully efficacious | very modest response
